Source: publication PMC10865409, “The prFMNH2-binding chaperone LpdD assists UbiD decarboxylase activation” (The Journal of Biological Chemistry, 2024)

Key:
LpdD [1] = target: T1, LpdD (Lactiplantibacillus plantarum, UniProt F9UT68, H61A); assay: UV-Vis after in vitro reconstitution and desalting; type: binding; details: anaerobic, 2:1 prFMNH2:protein, 50 mM Tris pH 7.5, 200 mM NaCl, 1 mM MnCl2
T1 construct: full length, N-terminal hexahistidine tag (best crystals; C-terminal also made), E. coli codon-optimized gene, E. coli BL21(DE3), Ni-NTA; dimer
T1 sequence (F9UT68 whole entry H61A): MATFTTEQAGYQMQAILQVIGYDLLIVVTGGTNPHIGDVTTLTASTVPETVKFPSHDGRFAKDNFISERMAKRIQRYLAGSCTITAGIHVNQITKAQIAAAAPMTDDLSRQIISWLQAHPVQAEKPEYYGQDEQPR

LpdD [2] = target: T2, LpdD (Lactiplantibacillus plantarum, UniProt F9UT68); assay: UV-Vis after in vitro reconstitution and desalting; type: binding; details: anaerobic, 2:1 prFMNH2:protein, 50 mM Tris pH 7.5, 200 mM NaCl, with or without MnCl2
T2 construct: full length, N-terminal hexahistidine tag (best crystals; C-terminal also made), E. coli codon-optimized gene, E. coli BL21(DE3), Ni-NTA; dimer
T2 sequence (F9UT68 1-136): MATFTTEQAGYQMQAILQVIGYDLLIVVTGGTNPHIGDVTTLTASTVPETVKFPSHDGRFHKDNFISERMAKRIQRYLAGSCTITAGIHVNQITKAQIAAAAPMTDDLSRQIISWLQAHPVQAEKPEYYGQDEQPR

[3] = target: T3, UbiD (Strep-tagged apo-UbiD) (Escherichia coli, UniProt P0AAB4); assay: decarboxylation by HPLC; Strep-UbiD plus LpdD-containing lysate; type: biochemical; details: anaerobic; LpdD lysate supernatant with or without prFMNH2; purified UbiD alone inactive
T3 construct: Strep-tagged, purified apo-UbiD reconstituted with LpdD-containing E. coli lysate and prFMNH2; 4-hydroxybenzoate row is endogenous UbiD of E. coli BL21(DE3)
T3 sequence (P0AAB4 1-497): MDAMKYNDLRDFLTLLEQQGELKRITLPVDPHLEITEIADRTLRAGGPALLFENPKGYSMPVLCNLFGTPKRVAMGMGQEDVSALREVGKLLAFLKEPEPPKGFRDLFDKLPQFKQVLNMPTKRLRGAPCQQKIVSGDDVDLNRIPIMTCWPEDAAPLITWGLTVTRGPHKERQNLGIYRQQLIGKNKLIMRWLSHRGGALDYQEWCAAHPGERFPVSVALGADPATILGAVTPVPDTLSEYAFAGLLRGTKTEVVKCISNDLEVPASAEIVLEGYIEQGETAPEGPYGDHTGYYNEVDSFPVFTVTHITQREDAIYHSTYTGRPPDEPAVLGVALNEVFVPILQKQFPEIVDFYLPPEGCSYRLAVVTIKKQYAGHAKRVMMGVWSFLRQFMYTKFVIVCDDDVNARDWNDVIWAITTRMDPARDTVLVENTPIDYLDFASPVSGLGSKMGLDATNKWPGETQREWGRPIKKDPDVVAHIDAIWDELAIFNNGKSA

[4] = target: T3, UbiD (Strep-tagged apo-UbiD); assay: ESI-MS of reconstituted Strep-UbiD; type: binding; details: reconstituted with LpdD-containing cell lysate and prFMNH2
[5] = target: T4, Strep-tagged Escherichia coli UbiD (Escherichia coli, UniProt P0AAB4 1-497); assay: pull-down; Strep-tagged UbiD and His-tagged LpdD mixed in an equimolar ratio, pulled down with streptavidin beads under anaerobic conditions; SDS-PAGE and His-Western blot; details: both partners purified
T4 construct: UbiD, prFMN-dependent decarboxylase of ubiquinone biosynthesis, Escherichia coli; also called Strep-UbiD; Strep-apo-UbiD; source: purified
T4 sequence (looked up): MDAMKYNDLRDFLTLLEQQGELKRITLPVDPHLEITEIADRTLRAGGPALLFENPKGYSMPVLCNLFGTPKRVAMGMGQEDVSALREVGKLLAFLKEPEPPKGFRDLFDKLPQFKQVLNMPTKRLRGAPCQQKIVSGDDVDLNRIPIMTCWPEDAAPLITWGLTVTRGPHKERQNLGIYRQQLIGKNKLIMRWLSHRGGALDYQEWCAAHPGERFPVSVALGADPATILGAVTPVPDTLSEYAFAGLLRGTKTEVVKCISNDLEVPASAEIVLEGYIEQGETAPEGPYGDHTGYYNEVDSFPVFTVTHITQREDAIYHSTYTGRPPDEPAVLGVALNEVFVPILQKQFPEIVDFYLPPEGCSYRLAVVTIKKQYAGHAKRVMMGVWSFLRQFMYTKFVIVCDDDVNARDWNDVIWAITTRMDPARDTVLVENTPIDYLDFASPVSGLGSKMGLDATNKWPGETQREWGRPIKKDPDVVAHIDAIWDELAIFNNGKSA

[6] = target: the molecule itself; assay: crystal structure; N-terminally His-tagged LpdD, ca 15 mg/ml, 1.6 M magnesium sulfate heptahydrate, 0.1 M Mes pH 6.5, 20 °C; space group I222, two monomers in the asymmetric unit; dimer built by crystallographic symmetry
[7] = target: the molecule itself; assay: crystal structure; LpdD H35A, space group P4_(1)2_(1)2, one molecule in the asymmetric unit, distinct crystallization conditions; dimer built by crystallographic symmetry

Molecule: Cc1cc2c3c(c1C)C(C)(C)CCN3c1c([nH]c(=O)[nH]c1=O)N2C[C@H](O)[C@H](O)[C@H](O)COP(=O)(O)O [prFMNH2]
- UV-Vis after in vitro reconstitution and desalting (LpdD [1]): purified H61A variant reveals this mutation does not abolish prFMNH2 binding
- UV-Vis after in vitro reconstitution and desalting (LpdD [2]): In vitro reconstitution of purified apo-LpdD with prFMNH2 results in similar spectral features

Molecule: O=C(O)c1ccc(O)c(O)c1 [compound 2, 3,4-dihydroxy-benzoic acid]
- decarboxylation by HPLC; Strep-UbiD plus LpdD-containing lysate [3]: activity was observed when LpdD-containing cell lysate supernatant was included in the assays

Molecule: Cc1cc2c3c(c1C)C(C)(C)CC=[N+]3c1c(nc([O-])[nH]c1=O)N2C[C@H](O)[C@H](O)[C@H](O)COP(=O)(O)O [prFMN^iminium]
- ESI-MS of reconstituted Strep-UbiD [4]: reconstituted Strep-UbiD reveals the presence of catalytically relevant prFMN^iminium species

B1: LpdD (lp_0272) from Lactobacillus plantarum, His-tagged (natural protein)
chain: MATFTTEQAGYQMQAILQVIGYDLLIVVTGGTNPHIGDVTTLTASTVPETVKFPSHDGRFHKDNFISERMAKRIQRYLAGSCTITAGIHVNQITKAQIAAAAPMTDDLSRQIISWLQAHPVQAEKPEYYGQDEQPR
notes: LpdD, small protein associated with the UbiD-type gallate decarboxylase LpdC, Lactobacillus plantarum, locus lp_0272; E. coli codon-optimized synthetic gene; N- and C-terminally His-tagged LpdD were both made (pET28a and pET30a); the best crystals came from the N-terminally tagged protein; The pull-down says only 'His-tagged LpdD'; The tag is detected by His-Western blot in the pull-down; also …
- binding result [5]: binds
- stoichiometry N [6]: 2

B2: LpdD H35A variant (natural protein, Lactobacillus plantarum)
chain: MATFTTEQAGYQMQAILQVIGYDLLIVVTGGTNPAIGDVTTLTASTVPETVKFPSHDGRFHKDNFISERMAKRIQRYLAGSCTITAGIHVNQITKAQIAAAAPMTDDLSRQIISWLQAHPVQAEKPEYYGQDEQPR
notes: LpdD, Lactobacillus plantarum, locus lp_0272, with H35A made by site-directed mutagenesis of the WT construct; source: E. coli BL21(DE3), purified
- stoichiometry N [7]: 2
